The values that follow come from US20220081444A1, “6,7-DIHYDRO-4H-PYRAZOLO[1,5-A]PYRAZINE INDOLE-2-CARBOXAMIDES ACTIVE AGAINST THE HEPATITIS B VIRUS (HBV)” (AiCuris GmbH & Co. KG, priority 2018, published 2022).

The term EC50 denotes the concentration giving half of the maximal effect.

Each structure is given as a SMILES string. Counter-ions that a name gives are not always drawn.

The experiment relates to HBV. The conditions noted are these: Hepatitis B virus, HePAD38, 144 h, read-out: Cell Activity (EC50).
With `O=C(c1cc2ccccc2[nH]1)N1CCn2nc(NCC3CCCOC3)cc2C1` (stereo not shown) [Example 55, 5-(1H-indole-2-carbonyl)-N-[(oxan-3-yl)methyl]-4H,5H,6H,7H-pyrazolo[1,5-a]pyrazin-2-amine], the EC50 is below 1000 nM.
On to `O=C(c1cc2ccccc2[nH]1)N1CCn2nc(NCc3ccccc3)cc2C1` [Example 56, N-benzyl-5-(1H-indole-2-carbonyl)-4H,5H,6H,7H-pyrazolo[1,5-a]pyrazin-2-amine], for which the concentration for a half-maximal effect (EC50) was 1000 to 10000 nM.
To `O=C(Nc1cc2n(n1)CCN(C(=O)c1cc3ccccc3[nH]1)C2)C1CCN(c2ccncc2)CC1` [Example 57, N-[5-(1H-indole-2-carbonyl)-4H,5H,6H,7H-pyrazolo[1,5-a]pyrazin-2-yl]-1-(pyridin-4-yl)piperidine-4-carboxamide] belongs below 1000 nM; to `COC(=O)N1CCC(C(=O)Nc2cc3n(n2)CCN(C(=O)c2cc4ccccc4[nH]2)C3)CC1` [Example 58, Methyl 4-{[5-(1H-indole-2-carbonyl)-4H,5H,6H,7H-pyrazolo[1,5-a]pyrazin-2-yl]carbamoyl}piperidine-1-carboxylate], below 1000 nM; to `CC(C)(CO)CNc1cc2n(n1)CCN(C(=O)c1cc3ccccc3[nH]1)C2` [Example 59, 3-{[5-(1H-indole-2-carbonyl)-4H,5H,6H,7H-pyrazolo[1,5-a]pyrazin-2-yl]amino}-2,2-dimethylpropan-1-ol], below 1000 nM.
For `COC1(CNc2cc3n(n2)CCN(C(=O)c2cc4ccccc4[nH]2)C3)CCC1` [Example 60, 5-(1H-indole-2-carbonyl)-N-[(1-methoxycyclobutyl)methyl]-4H,5H,6H,7H-pyrazolo[1,5-a]pyrazin-2-amine], the EC50 is below 1000 nM.
To `O=C(Nc1cc2n(n1)CCN(C(=O)c1cc3ccccc3[nH]1)C2)C1CCNC(C(F)(F)F)C1` (stereo not shown) [Example 61, N-[5-(1H-indole-2-carbonyl)-4H,5H,6H,7H-pyrazolo[1,5-a]pyrazin-2-yl]-2-(trifluoromethyl)piperidine-4-carboxamide] belongs below 1000 nM; to `O=C(Nc1cc2n(n1)CCN(C(=O)c1cc3ccccc3[nH]1)C2)C1CCN(CCO)CC1` [Example 62, 1-(2-hydroxyethyl)-N-[5-(1H-indole-2-carbonyl)-4H,5H,6H,7H-pyrazolo[1,5-a]pyrazin-2-yl]piperidine-4-carboxamide], 1000 to 10000 nM; to `O=C(Nc1cc2n(n1)CCN(C(=O)c1cc3ccccc3[nH]1)C2)C1CCN(CC(F)(F)F)CC1` [Example 63, N-[5-(1H-indole-2-carbonyl)-4H,5H,6H,7H-pyrazolo[1,5-a]pyrazin-2-yl]-1-(2,2,2-trifluoroethyl)piperidine-4-carboxamide], below 1000 nM.
For the compound `CS(=O)(=O)N1CCC(C(=O)Nc2cc3n(n2)CCN(C(=O)c2cc4ccccc4[nH]2)C3)CC1` [Example 64, N-[5-(1H-indole-2-carbonyl)-4H,5H,6H,7H-pyrazolo[1,5-a]pyrazin-2-yl]-1-methanesulfonylpiperidine-4-carboxamide], the 50% effective concentration (EC50) was below 1000 nM.
In the case of `NC(=O)N1CCC(C(=O)Nc2cc3n(n2)CCN(C(=O)c2cc4ccccc4[nH]2)C3)CC1` [Example 65, N4-[5-(1H-indole-2-carbonyl)-4H,5H,6H,7H-pyrazolo[1,5-a]pyrazin-2-yl]piperidine-1,4-dicarboxamide] it was below 1000 nM; in that of `CC(=O)N1CC(C(=O)Nc2cc3n(n2)CCN(C(=O)c2cc4ccccc4[nH]2)C3)C1` [Example 66, 1-acetyl-N-[5-(1H-indole-2-carbonyl)-4H,5H,6H,7H-pyrazolo[1,5-a]pyrazin-2-yl]azetidine-3-carboxamide], below 1000 nM; in that of `CNC(=O)Nc1cc2n(n1)CCN(C(=O)c1cc3ccccc3[nH]1)C2` [Example 67, 1-[5-(1H-indole-2-carbonyl)-4H,5H,6H,7H-pyrazolo[1,5-a]pyrazin-2-yl]-3-methylurea], below 1000 nM.
In the case of `O=C(Nc1cc2n(n1)CCN(C(=O)c1cc3ccccc3[nH]1)C2)C1CCn2ccnc2C1` (stereo not shown) [Example 68, N-[5-(1H-indole-2-carbonyl)-4H,5H,6H,7H-pyrazolo[1,5-a]pyrazin-2-yl]-5H,6H,7H,8H-imidazo[1,2-a]pyridine-7-carboxamide] it was below 1000 nM.
In the case of `O=C(Nc1cc2n(n1)CCN(C(=O)c1cc3ccccc3[nH]1)C2)C1CCN(C2CCOCC2)CC1` [Example 69, N-[5-(1H-indole-2-carbonyl)-4H,5H,6H,7H-pyrazolo[1,5-a]pyrazin-2-yl]-1-(oxan-4-yl)piperidine-4-carboxamide] it was below 1000 nM; in that of `CN1CC(C(=O)Nc2cc3n(n2)CCN(C(=O)c2cc4ccccc4[nH]2)C3)C1` [Example 70, N-[5-(1H-indole-2-carbonyl)-4H,5H,6H,7H-pyrazolo[1,5-a]pyrazin-2-yl]-1-methylazetidine-3-carboxamide], 1000 to 10000 nM; in that of `O=C(c1cc2ccccc2[nH]1)N1CCn2nc(NCC3(O)CCC3)cc2C1` [Example 71, 1-({[5-(1H-indole-2-carbonyl)-4H,5H,6H,7H-pyrazolo[1,5-a]pyrazin-2-yl]amino}methyl)cyclobutan-1-ol], below 1000 nM.
As for `CC(CO)CNc1cc2n(n1)CCN(C(=O)c1cc3ccccc3[nH]1)C2` (stereo not shown) [Example 72, 3-{[5-(1H-indole-2-carbonyl)-4H,5H,6H,7H-pyrazolo[1,5-a]pyrazin-2-yl]amino}-2-methylpropan-1-ol], the EC50 is below 1000 nM.
In the case of `O=C(Nc1cc2n(n1)CCN(C(=O)c1cc3ccccc3[nH]1)C2)C1CCNCC1(F)F` (stereo not shown) [Example 73, 3,3-difluoro-N-[5-(1H-indole-2-carbonyl)-4H,5H,6H,7H-pyrazolo[1,5-a]pyrazin-2-yl]piperidine-4-carboxamide] it was below 1000 nM.
To `O=C(Nc1cc2n(n1)CCN(C(=O)c1cc3ccccc3[nH]1)C2)C1CCN(C2CC2)CC1` [Example 74, 1-cyclopropyl-N-[5-(1H-indole-2-carbonyl)-4H,5H,6H,7H-pyrazolo[1,5-a]pyrazin-2-yl]piperidine-4-carboxamide] belongs below 1000 nM.
To `CC1(CNc2cc3n(n2)CCN(C(=O)c2cc4ccccc4[nH]2)C3)CCOC1` (stereo not shown) [Example 75, 5-(1H-indole-2-carbonyl)-N-[(3-methyloxolan-3-yl)methyl]-4H,5H,6H,7H-pyrazolo[1,5-a]pyrazin-2-amine] belongs below 1000 nM; to `O=C(c1cc2ccccc2[nH]1)N1CCn2nc(N[C@H]3C[C@H](O)C3)cc2C1` [Example 76, (1r,3r)-3-{[5-(1H-indole-2-carbonyl)-4H,5H,6H,7H-pyrazolo[1,5-a]pyrazin-2-yl]amino}cyclobutan-1-ol], below 1000 nM; to `O=C(c1cc2ccccc2[nH]1)N1CCn2nc(N[C@H]3CCC[C@@H](O)C3)cc2C1` [Example 77, (1R,3S)-3-{[5-(1H-indole-2-carbonyl)-4H,5H,6H,7H-pyrazolo[1,5-a]pyrazin-2-yl]amino}cyclohexan-1-ol], below 1000 nM.
As for `CC(C)OC1(CNc2cc3n(n2)CCN(C(=O)c2cc4ccccc4[nH]2)C3)CCC1` [Example 78, 5-(1H-indole-2-carbonyl)-N-{[1-(propan-2-yloxy)cyclobutyl]methyl}-4H,5H,6H,7H-pyrazolo[1,5-a]pyrazin-2-amine], the EC50 is below 1000 nM.
As for `O=C(c1cc2ccccc2[nH]1)N1CCn2nc(NCC3(CO)CCC3)cc2C1` [Example 79, [1-({[5-(1H-indole-2-carbonyl)-4H,5H,6H,7H-pyrazolo[1,5-a]pyrazin-2-yl]amino}methyl)cyclobutyl]methanol], the half-maximal effective concentration (EC50) was below 1000 nM.
In the case of `COC1CCC(Nc2cc3n(n2)CCN(C(=O)c2cc4ccccc4[nH]2)C3)CC1` (stereo not shown) [Example 80, 5-(1H-indole-2-carbonyl)-N-(4-methoxycyclohexyl)-4H,5H,6H,7H-pyrazolo[1,5-a]pyrazin-2-amine] it was below 1000 nM; in that of `CN1CCC(C(=O)Nc2cc3n(n2)CCN(C(=O)c2cc4ccccc4[nH]2)C3)CC1C(F)(F)F` (stereo not shown) [Example 81, N-[5-(1H-indole-2-carbonyl)-4H,5H,6H,7H-pyrazolo[1,5-a]pyrazin-2-yl]-1-methyl-2-(trifluoromethyl)piperidine-4-carboxamide], below 1000 nM.
In the case of `O=C(c1cc2ccccc2[nH]1)N1CCn2nc(NCC3(O)CC(F)(F)C3)cc2C1` [Example 83, 3,3-difluoro-1-({[5-(1H-indole-2-carbonyl)-4H,5H,6H,7H-pyrazolo[1,5-a]pyrazin-2-yl]amino}methyl)cyclobutan-1-ol] it was below 1000 nM.
Regarding `O=C(c1cc2ccccc2[nH]1)N1CCn2nc(NC3(c4ccccc4)CC3)cc2C1` [Example 84, 5-(1H-indole-2-carbonyl)-N-(1-phenylcyclopropyl)-4H,5H,6H,7H-pyrazolo[1,5-a]pyrazin-2-amine], the EC50 is below 1000 nM.
To `O=C(Nc1cc2n(n1)CCN(C(=O)c1cc3ccccc3[nH]1)C2)C1CCNCC1F` (stereo not shown) [Example 85, 3-fluoro-N-[5-(1H-indole-2-carbonyl)-4H,5H,6H,7H-pyrazolo[1,5-a]pyrazin-2-yl]piperidine-4-carboxamide Trihydrochloride] belongs below 1000 nM.
`CN1CCC(C(=O)Nc2cc3n(n2)CCN(C(=O)c2cc4ccccc4[nH]2)C3)C(F)(F)C1` (stereo not shown) [Example 87, 3,3-difluoro-N-[5-(1H-indole-2-carbonyl)-4H,5H,6H,7H-pyrazolo[1,5-a]pyrazin-2-yl]-1-methylpiperidine-4-carboxamide]: the EC50 is below 1000 nM.
For `CN1CCC(C(=O)Nc2cc3n(n2)CCN(C(=O)c2cc4ccccc4[nH]2)C3)C(F)C1` (stereo not shown) [Example 88, 3-fluoro-N-[5-(1H-indole-2-carbonyl)-4H,5H,6H,7H-pyrazolo[1,5-a]pyrazin-2-yl]-1-methylpiperidine-4-carboxamide], the 50% effective concentration (EC50) is below 1000 nM.
`CN1CC[C@H](C(=O)Nc2cc3n(n2)CCN(C(=O)c2cc4ccccc4[nH]2)C3)[C@@H](F)C1` [Example 89, (3R,4R)-3-fluoro-N-[5-(1H-indole-2-carbonyl)-4H,5H,6H,7H-pyrazolo[1,5-a]pyrazin-2-yl]-1-methylpiperidine-4-carboxamide]: the EC50 was below 1000 nM.
As for `O=C(c1cc2ccccc2[nH]1)N1CCn2nc(NC3(CO)CCC3)cc2C1` [Example 90, (1-{[5-(1H-indole-2-carbonyl)-4H,5H,6H,7H-pyrazolo[1,5-a]pyrazin-2-yl]amino}cyclobutyl)methanol], the half-maximal effective concentration (EC50) is below 1000 nM.
